Measured values reported in ChEMBL document CHEMBL1201862, “PubChem BioAssay data set” (2004).
Calls of active or inactive are those of the source.

Key:
[1] = microbe, parasite or virus in culture; assay type: functional; conditions: Mycobacterium tuberculosis
[2] = Luminescence Cell-Based Dose Retest to Confirm Inhibitors of Cancer Stem Cells. [Related pubchem assays (depositor defined):AID2717, AID2721]; assay type: functional; conditions: Homo sapiens
[3] = molecular target: T1, Replicative DNA helicase DnaB (Mycobacterium tuberculosis, UniProt P9WMR3); assay: DnaB intein splicing inhibitors, dose response, biochemical, cell-free fluorescence (AID 449749); assay type: functional
T1 sequence (P9WMR3 whole entry): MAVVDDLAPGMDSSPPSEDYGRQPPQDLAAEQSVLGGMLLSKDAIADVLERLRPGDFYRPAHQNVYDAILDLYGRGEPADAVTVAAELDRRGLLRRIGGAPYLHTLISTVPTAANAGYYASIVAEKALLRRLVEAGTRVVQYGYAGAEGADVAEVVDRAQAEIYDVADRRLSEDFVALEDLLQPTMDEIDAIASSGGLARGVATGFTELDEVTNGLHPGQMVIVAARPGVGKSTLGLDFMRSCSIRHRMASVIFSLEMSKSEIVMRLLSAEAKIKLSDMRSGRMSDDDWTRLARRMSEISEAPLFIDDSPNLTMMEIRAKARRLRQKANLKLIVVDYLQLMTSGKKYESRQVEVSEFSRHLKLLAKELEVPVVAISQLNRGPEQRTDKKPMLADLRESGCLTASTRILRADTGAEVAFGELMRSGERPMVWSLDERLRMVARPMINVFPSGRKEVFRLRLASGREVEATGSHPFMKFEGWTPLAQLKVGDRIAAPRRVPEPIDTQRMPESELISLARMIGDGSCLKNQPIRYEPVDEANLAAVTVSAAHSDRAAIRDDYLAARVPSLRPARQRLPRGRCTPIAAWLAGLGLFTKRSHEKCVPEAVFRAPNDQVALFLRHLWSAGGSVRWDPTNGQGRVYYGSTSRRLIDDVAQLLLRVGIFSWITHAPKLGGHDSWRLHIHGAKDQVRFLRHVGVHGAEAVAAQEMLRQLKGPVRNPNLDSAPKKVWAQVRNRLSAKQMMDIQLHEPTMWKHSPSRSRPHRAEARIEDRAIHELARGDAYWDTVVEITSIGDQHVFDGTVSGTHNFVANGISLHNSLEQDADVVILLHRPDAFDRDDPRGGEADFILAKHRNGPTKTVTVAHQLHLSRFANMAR

[4] = molecular target: T2, Protein RecA (Mycobacterium tuberculosis, UniProt P9WHJ3); assay: Fluorescence Cell-Free Homogeneous Dose Retest to Identify Inhibitors of RecA-Intein Splicing Activity. [Related pubchem assays (depositor defined):AID2097, AID2223, AID489010, AID492950]; assay type: functional
T2 sequence (P9WHJ3 whole entry): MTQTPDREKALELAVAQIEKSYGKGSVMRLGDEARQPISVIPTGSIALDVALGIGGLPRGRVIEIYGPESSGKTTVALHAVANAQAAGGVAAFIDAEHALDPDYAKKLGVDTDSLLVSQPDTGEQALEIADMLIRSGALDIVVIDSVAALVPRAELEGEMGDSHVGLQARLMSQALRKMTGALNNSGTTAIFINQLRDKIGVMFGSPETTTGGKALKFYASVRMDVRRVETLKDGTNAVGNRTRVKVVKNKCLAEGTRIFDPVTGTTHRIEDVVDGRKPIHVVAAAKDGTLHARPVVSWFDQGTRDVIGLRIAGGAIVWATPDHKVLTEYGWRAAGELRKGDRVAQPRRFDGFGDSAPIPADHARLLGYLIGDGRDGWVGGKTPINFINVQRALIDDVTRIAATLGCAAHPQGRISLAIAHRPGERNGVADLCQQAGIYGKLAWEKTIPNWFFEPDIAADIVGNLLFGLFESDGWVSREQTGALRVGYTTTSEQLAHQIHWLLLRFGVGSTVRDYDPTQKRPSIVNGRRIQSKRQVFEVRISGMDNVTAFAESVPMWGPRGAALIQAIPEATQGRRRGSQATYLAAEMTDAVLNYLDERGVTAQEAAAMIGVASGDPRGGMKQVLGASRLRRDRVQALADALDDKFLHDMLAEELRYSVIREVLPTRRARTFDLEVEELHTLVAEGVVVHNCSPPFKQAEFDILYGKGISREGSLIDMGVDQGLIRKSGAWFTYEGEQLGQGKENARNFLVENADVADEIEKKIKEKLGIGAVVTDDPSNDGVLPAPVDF

[5] = test system: INS1; assay: INS-1E survival protection against cytokine death – cell-based, luminescence, retest, dose response (AID 449756); assay type: functional; conditions: Rattus norvegicus;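 note: cell death triggered by IL-1 beta plus TNF-alpha plus IFN-gamma mixture; protective hits raise ATP signal compared with cytokine alone wells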
[6] = test system: BJ; assay: BJ-TERT fibroblast viability loss – cell-based, RAS-independent, luminescence, dose response (AID 1933); assay type: functional; conditions: Homo sapiens
[7] = test system: BJ; assay: cells; assay type: functional, cell-based; conditions: Homo sapiens
[8] = test system: BJ; assay: BJ-TERT-LT-ST fibroblast viability loss – cell-based, RAS-independent, luminescence, dose response (AID 1935); assay type: functional; conditions: Homo sapiens;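 note: BJ fibroblasts immortalized with TERT plus LT and ST oncogenes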
[9] = DRD fibroblast viability loss – cell-based, non-viral oncogenic, luminescence, dose response (AID 1934); assay type: functional; conditions: Homo sapiens
[10] = Trypanosoma cruzi growth suppression in host cells – NIH3T3 host cells, beta-gal luminescence, confirmation (AID 2044); assay type: functional, cell-based;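 note: intracellular parasites grown in NIH/3T3 mouse fibroblasts as host cells; luminescent beta-galactosidase reporter signal from transgenic T. cruzi replicating inside host cells; inhibitors lower the luminescence signal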
[11] = NIH3T3 cell viability loss – ATP luminescence, mouse fibroblasts, counter-screen, dose response (AID 2010); assay type: functional, cell-based;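 note: cells exposed to compound for about 90 hours before reading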
[12] = viability of uninfected HEp-2 cells – cell-based, HTS, cytotoxicity control for RSV inhibitor project, dose response (AID 2410); assay type: functional; conditions: human respiratory syncytial virus
[13] = cells; assay type: functional
[14] = luciferase reporter signal suppression in cells – H4 neuroglioma cells, luminescence, dose response (AID 1990); assay type: functional, cell-based
[15] = alpha-synuclein stem-loop luciferase translation blockers – H4 neuroglioma cells, luminescence, confirmation (AID 1988); assay type: functional, cell-based
[16] = molecular target: Cytochrome P450 3A4 (Homo sapiens, UniProt P08684);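 note: CYP3A4 tested as one member of a cytochrome P450 panel screen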
[17] = molecular target: T3, Heat shock factor protein 1 (Mus musculus, UniProt P38532); assay: enhancement of HSF1-driven luciferase signal – cell-based, NIH3T3, luminescence, dose retest, confirmation (AID 435004); assay type: functional;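 note: stress induced by proteasome inhibitor MG132 added 30 min after compound; luciferase reporter driven by HSF1 response element in NIH3T3 cells; actives raise luminescence as potentiators of the MG132 stress response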
T3 sequence (P38532 whole entry): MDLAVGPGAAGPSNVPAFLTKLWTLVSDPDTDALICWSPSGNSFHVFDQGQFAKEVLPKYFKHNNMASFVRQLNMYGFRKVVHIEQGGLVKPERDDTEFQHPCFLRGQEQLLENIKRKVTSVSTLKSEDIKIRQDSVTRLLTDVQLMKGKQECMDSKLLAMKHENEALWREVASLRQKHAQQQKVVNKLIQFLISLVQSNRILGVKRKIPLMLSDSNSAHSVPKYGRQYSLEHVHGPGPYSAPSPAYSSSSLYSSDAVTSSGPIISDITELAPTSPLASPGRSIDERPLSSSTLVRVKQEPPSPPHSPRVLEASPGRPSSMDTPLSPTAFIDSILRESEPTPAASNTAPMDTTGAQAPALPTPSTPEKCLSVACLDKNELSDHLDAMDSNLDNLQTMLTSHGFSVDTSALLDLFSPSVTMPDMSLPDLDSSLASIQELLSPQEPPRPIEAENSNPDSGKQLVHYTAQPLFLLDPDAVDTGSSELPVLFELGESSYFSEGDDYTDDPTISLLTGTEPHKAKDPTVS

[18] = P. falciparum Dd2 growth inhibitors, dose response, SYBR Green, cherry-picked samples (AID 1159567); assay type: functional, cell-based

Chain of Cytochrome P450 3A4 (P08684 whole entry): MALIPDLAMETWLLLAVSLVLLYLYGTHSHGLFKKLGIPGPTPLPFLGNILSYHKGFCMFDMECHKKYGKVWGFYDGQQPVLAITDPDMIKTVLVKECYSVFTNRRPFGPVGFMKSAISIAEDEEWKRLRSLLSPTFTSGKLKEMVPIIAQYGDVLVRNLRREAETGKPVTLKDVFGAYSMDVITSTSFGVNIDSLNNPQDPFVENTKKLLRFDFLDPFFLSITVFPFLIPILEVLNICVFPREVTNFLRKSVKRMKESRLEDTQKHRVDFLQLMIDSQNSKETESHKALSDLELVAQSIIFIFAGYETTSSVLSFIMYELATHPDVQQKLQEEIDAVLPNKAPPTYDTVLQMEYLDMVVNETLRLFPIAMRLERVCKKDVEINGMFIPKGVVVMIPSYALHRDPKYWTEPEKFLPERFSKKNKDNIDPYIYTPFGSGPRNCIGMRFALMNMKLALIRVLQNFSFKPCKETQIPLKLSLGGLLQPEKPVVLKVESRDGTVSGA

Oc1ccc(Nc2nc(-c3ccc4ccccc4c3)cs2)cc1
CC50 [1]: 17.1 µM (active)
AC50 [2]: 5.31 µM (active)
AC50 [3]: 67.6 µM (active)
EC50 [4]: 7.3 µM (active)
AC50 [5]: 16.6 µM (active)

COc1ccc2nc(-c3cccc(F)c3)cc(O)c2c1
EC50 [6]: 1.24 µM (active)
EC50 [7]: 1.41 µM (inconclusive)
EC50 [8]: 0.885 µM (active)
EC50 [9]: 2.39 µM (inconclusive)

COc1cc(OC)cc(-c2cc3nc(C)c(CCC(=O)NC(C)CCc4ccco4)c(C)n3n2)c1 (stereo not given)
EC50 [10]: 0.45 µM (active)
CC50 [1]: 31.8 µM (active)
EC50 [11]: > 30 µM (not active)

CCCCCCC(=O)Nc1nc(C)c(-c2csc(Nc3ccccc3OC)n2)s1
CC50 [12]: 15 µM (active)

Cc1ccc(NC(=O)CSc2nc3ccccc3c(=O)n2CCCN2CCCCC2)cc1Cl
EC50 [10]: 2.29 µM (active)
CC50 [1]: 14.4 µM (active)
EC50 [11]: > 60 µM (inconclusive)

O=C(NCCN1CCN(c2cccc(Cl)c2)CC1)c1ccc(CSc2nc3cc[nH]cc-3n2)cc1
CC50 [1]: > 40 µM (active)

O=C(Nc1cccc(-c2nnc(-c3ccco3)o2)c1)C(c1ccccc1)c1ccccc1
CC50 [12]: 15.2 µM (active)

CCCc1n[nH]c2c1C(c1ccc(O)cc1OCC)C(C#N)=C(N)O2 (stereo not given)
AC50 [3]: 40.3 µM (active)
EC50 [4]: 4.6 µM (active)

O=[N+]([O-])c1ncccc1Oc1nc(-c2cccnc2)nc2ccccc12
CC50 [1]: > 40 µM (active)
IC50 [13]: 1.15 µM (active)

CCOC(=O)c1nnc(-c2ccc(C)cc2)nc1Oc1ccccc1Cl
CC50 [12]: 21.3 µM (active)

CN(Cc1ccc(Cl)cc1)C(=O)CCl
AC50 [3]: 21.8 µM (active)
EC50 [4]: 2.61 µM (active)

CC(=O)Nc1cccc(C(=O)/C=C/c2ccc(/C=C/C(=O)c3cccc(NC(C)=O)c3)cc2)c1
EC50 [6]: 5.89 µM (inconclusive)
EC50 [7]: > 150 µM (not active)
EC50 [8]: 3.93 µM (inconclusive)
EC50 [9]: 5.45 µM (inconclusive)

CCOC(=O)c1nnc2cc(-c3ccccc3)nn2c1C
CC50 [12]: > 50 µM (active)

Cc1nn(-c2ccccc2)c2c1C1(C(=O)Nc3ccccc31)N1C(=N2)Sc2ccccc21 (stereo not given)
CC50 [12]: 18.4 µM (active)

COc1ccc(CCNC(=O)CC2(CC3=NS(=O)(=O)c4ccccc4N3)CCCC2)cc1OC
EC50 [14]: 18.8 µM (active)
EC50 [15]: > 120 µM (not active)

COc1ccc(-c2cc(C(F)(F)F)nc(SCc3cccc(C(=O)O)c3)n2)cc1
CC50 [12]: 22.2 µM (active)
AC50 [16]: 14.1 µM (inconclusive)

Cc1ccc(C)c(S(=O)(=O)N2CCN(C(=O)c3ccccc3Cc3ccccc3)CC2)c1
CC50 [12]: 22.6 µM (active)

COC(=O)c1c(C)oc2ccc(N(C(=O)c3ccncc3)S(=O)(=O)c3ccc(C)cc3C)cc12
AC50 [3]: 2.27 µM (active)
EC50 [4]: 10.9 µM (active)
AC50 [5]: 3.85 µM (active)

CC(=O)Oc1cc2c(cc1Cl)C1(CC(c3ccccc3Cl)O2)CC(C)(C)N=C(S)N1 (stereo not given)
AC50 [3]: 4.22 µM (active)
EC50 [4]: 14.1 µM (active)

CC(=O)N1CC2(c3ccccc3)CN(C(C)=O)CC(c3ccccc3)(C1)C2=O
AC50 [3]: > 380 µM (inactive)
EC50 [4]: > 380 µM (inactive)

COC(=O)/C(=C\Nc1ccc(Cl)cc1Cl)NC(=O)c1ccc(OC)cc1
EC50 [6]: 10 µM (inconclusive)
EC50 [7]: 57.7 µM (active)
EC50 [8]: 15.3 µM (inconclusive)
EC50 [9]: 4.31 µM (active)

Cc1c(C(=O)N/N=C/c2ccccc2)[nH]c2c([N+](=O)[O-])cccc12
EC50 [6]: 0.776 µM (active)
EC50 [7]: 73.1 µM (inconclusive)
EC50 [8]: 0.708 µM (inconclusive)
EC50 [9]: 27.1 µM (inconclusive)

C/C(CC(=O)Nc1cc(C)ccn1)=N\NC(=O)c1cccc(F)c1
AC50 [3]: 18.7 µM (active)
EC50 [4]: 8.06 µM (active)

COc1ccc(N/N=C(\C#N)C(=N)SCc2ccccc2)cc1
AC50 [3]: 3.6 µM (active)
EC50 [4]: 8.67 µM (active)

CSC(=N/c1cc(Cl)ccc1Cl)/C(C#N)=C(/O)c1ccco1
CC50 [1]: 37.1 µM (active)
EC50 [17]: 11.2 µM (active)
IC50 [13]: 7.46 µM (active)
AC50 [3]: 2.51 µM (active)
EC50 [4]: 0.912 µM (active)

COc1ccc2c3c(n(C)c2c1)[C@H](CO)N(C(=O)Nc1ccc(F)cc1)CC31CN(C(=O)NC2CCCC2)C1
AC50 [18]: 5.8 µM (active)

CCS(=O)(=O)N1CCCCN2[C@H](CO)[C@H](c3ccc(C#Cc4ccccc4OC)cc3)[C@@H]2C1
AC50 [18]: 8.09 µM (active)

COc1ccc(C#Cc2ccc3c(c2)[C@H]2[C@H](CCN2C(=O)C2CCC2)[C@@H](CO)N3)cc1
AC50 [18]: 3.22 µM (active)

CC(C)[C@H](CO)N(Cc1cccc(F)c1)c1nc(Nc2cccc(Cl)c2)c2ncn(C(C)C)c2n1
CC50 [1]: > 40 µM (active)

O=c1cc(-c2ccccc2)oc2ccccc12 [FLAVONE]
CC50 [12]: 34.2 µM (active)
